# Test results taken from US20110020801A1, “Carboxylesterase-1 Polymorphisms and Methods of Use Therefor” (priority 2007, published 2011).
# Where two headings read alike, the source gives them in different places.
# Assays:
# [1] = biological target: T1, p.Gly143Glu CES1 (Homo sapiens, UniProt P23141, G143E); assay: MPH hydrolysis to ritalinic acid by S9 of cells expressing p.Gly143Glu CES1 (HPLC); assay type: biochemical; conditions: S9 500 μg/ml, even at very high S9 concentration (2 mg/ml); 37° C., 2 h
# T1 construct: inserting a stop codon after CES1A1 gene to yield the constructs expressing CES1 without V5-His tag; expressed in transfected cells
# T1 sequence (P23141 18-567 G143E/Y526T): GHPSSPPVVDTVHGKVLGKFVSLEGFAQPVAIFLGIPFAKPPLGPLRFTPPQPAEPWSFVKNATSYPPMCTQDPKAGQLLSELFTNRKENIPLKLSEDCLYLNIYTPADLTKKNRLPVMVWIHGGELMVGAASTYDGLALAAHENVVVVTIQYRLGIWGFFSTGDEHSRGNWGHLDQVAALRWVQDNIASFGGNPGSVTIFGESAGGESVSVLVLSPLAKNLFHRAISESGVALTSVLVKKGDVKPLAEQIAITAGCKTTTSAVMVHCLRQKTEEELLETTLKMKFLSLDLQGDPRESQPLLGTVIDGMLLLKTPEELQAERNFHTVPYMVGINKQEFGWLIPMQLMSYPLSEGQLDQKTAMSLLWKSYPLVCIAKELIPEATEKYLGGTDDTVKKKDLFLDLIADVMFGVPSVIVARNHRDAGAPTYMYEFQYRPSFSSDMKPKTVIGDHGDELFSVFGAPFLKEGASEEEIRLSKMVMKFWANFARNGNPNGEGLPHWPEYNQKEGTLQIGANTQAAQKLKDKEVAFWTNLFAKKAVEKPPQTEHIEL
# Excerpt: The desired plasmid was designed such that the recombinant CES1 would be expressed in mammalian cells with a V5-His tag to facilitate detection and purification. Additionally, another plasmid was generated by inserting a stop codon after CES1A1 gene to yield the constructs expressing CES1 without V5-His tag. […] Thus, only untagged CES1 and its associated mutants were used in the enzymatic hydrolysis study. Two constructs of CES1 mutations, p.Gly143Glu and p.Asp260fs, were generated using a site-directed mutagenesis assay. All constructs were subjected to DNA sequencing analysis to confirm that the desired plasmids were obtained. The identified CES1A1 plasmids (WT, p.Gly143Glu, and p.Asp260fs) were co-transfected with pOG44 plasmid at a ratio of 1:10 into Flp-In™-293 cells using […] (Invitrogen, Carlsbad, Calif.). Additionally, the self-ligated pcDNA5/FRT/V5-His-TOPO® vector was included as a vector control. Twenty-four hours after transfection, cells were washed with PBS and fresh complete medium (Dulbecco's modified Eagle's medium containing 10% fetal bovine serum) was added. […]
# After attaining approximately 95% confluence, cells were rinsed and harvested in PBS containing 10 mM HEPES (pH 7.4). […] The protein concentration was determined using a Pierce BCA assay kit (Rockford, Ill.).
# For the study of MPH hydrolysis, the reaction was conducted in 1.5 mL eppendorf tubes with a final S9 concentration of 0.5 mg/mL at a total volume of 100 μL. […] Concentrations of the primary phase I MPH metabolite produced via hydrolysis, ritalinic acid (RA), was determined utilizing an established HPLC method described below.
# Thus, following the enzymatic assay, the values determined for spontaneous PNP and RA hydrolysis were subtracted from the total PNP and RA production. […] All collected data were fit to the Michaelis-Menten equation, and kinetic parameters were calculated using nonlinear regression analysis with Graphpad Prism software (Graphpad Software Inc., San Diego, Calif.) […]
# [2] = Pharmacokinetic study of orally administered racemic MPH in normal volunteers; assay type: in vivo, human; conditions: human, plasma
# Method: Analysis of Pharmacokinetic, Hemodynamic, and Statistical Data. Standard pharmacokinetic analyses were applied to the MPH data using WinNonLin software (Pharsight, Mountainview, Calif.) and are described in a previous publication.^10 The AUC, Cmax, and t1/2 were analyzed using the Extreme Studentized Deviate (ESD) single-outlier procedure^12 to determine whether the parameter measurements for the slow metabolizer constituted true statistical outliers. For each parameter, the ESD procedure confirmed the measurement as an outlier at the p<0.01 level. Because this procedure is known to be conservative, the data from the aberrant metabolizer were reassessed using a similar procedure with respect to the normal participants only.
# [3] = mean ±SD of all other subjects, single oral 0.3 mg/kg racemic MPH
structure (smiles),measurement,setting,value
"COC(=O)[C@H](c1ccccc1)[C@H]1CCCCN1 [d-MPH, methylphenidate]",catalytic activity towards MPH hydrolysis,[1],failed to show any hydrolytic activity
same,AUC,"[2]; oral, 0.3 mg/kg, Table 1, 19 study peers, read-out: AUC, Mean (±SD)",78.6 ng·h/mL
same,Cmax,"[2]; oral, 0.3 mg/kg, Table 1, 19 study peers, read-out: Cmax, Mean (±SD)",13.8 ng/mL
same,half-life,"[2]; oral, 0.3 mg/kg, Table 1, 19 study peers, read-out: t1/2, Mean (±SD) (converted)",3 h
same,Tmax,[2]; [3],2.3 ± 0.8 h
same,half-life,"[2]; mean ±SD of all other subjects, single oral 0.3 mg/kg racemic MPH, read-out: t1/2 (converted)",2.8 ± 0.4 h
same,AUC(0-inf),[2]; [3],83 ± 22 ng·h/mL
same,Cmax,"[2]; mean ±SD of all other subjects, single oral 0.3 mg/kg racemic MPH, read-out: Cmax",15 ± 3 ng/mL
same,AUC,"[2]; male, oral, 0.3 mg/kg, Table 1, aberrant metabolizer, read-out: AUC, Outlier",209 ng·h/mL
same,Cmax,"[2]; male, oral, 0.3 mg/kg, Table 1, aberrant metabolizer, read-out: Cmax, Outlier",36.7 ng/mL
same,half-life,"[2]; male, oral, 0.3 mg/kg, Table 1, aberrant metabolizer, read-out: t1/2, Outlier (converted)",5.4 h
same,Tmax,"[2]; male, slow metabolizer, single oral 0.3 mg/kg racemic MPH",3 h
same,half-life,"[2]; male, slow metabolizer, single oral 0.3 mg/kg racemic MPH, read-out: t1/2 (converted)",5.4 h
same,AUC(0-inf),"[2]; male, slow metabolizer (heterozygous for p.Gly143Glu and p.Asp260fs), single oral 0.3 mg/kg racemic MPH",209 ng·h/mL
same,Cmax,"[2]; male, slow metabolizer, single oral 0.3 mg/kg racemic MPH, read-out: Cmax",37 ng/mL
